The values that follow are results of earlier work, collected in patent publication US11566140B2, “Exterior coating composition” (Troy Corporation, priority 2019, dated 2023).

The conditions of this series: 5 grams of pure BIT completely soluble in 100 ml of methanol.

Regarding `O=c1[nH]sc2ccccc12` [BIT, 1,2-benzisothiazolin-3-one], the solubility in methanol result was “greater than 5%”.
